Where a name gives a salt, the structure may show the parent alone. Read-outs that look alike come from different tables or passages of the source.
How the values were obtained:
[1] = biological target: T1, Human Secreted Phospholipase A2 (Homo sapiens, UniProt P14555); experiment: chromogenic assay for inhibitors of recombinant human secreted phospholipase A2; format: biochemical
T1 sequence (P14555 21-144): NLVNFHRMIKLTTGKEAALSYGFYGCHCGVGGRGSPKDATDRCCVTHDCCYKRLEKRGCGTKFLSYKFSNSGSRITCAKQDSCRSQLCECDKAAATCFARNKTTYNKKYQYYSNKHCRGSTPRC
Method: The following chromogenic assay procedure was used to identify and evaluate inhibitors of recombinant human secreted phospholipase A2. The assay described herein has been adapted for high volume screening using 96 well microtiter plates.
Adjust pH to 4.5 with acetic acid
DTNB—5,5′-dithiobis-2-nitrobenzoic acid
RACEMIC DIHEPTANOYL THIO—PC
racemic 1,2-bis(heptanoylthio)-1,2-dideoxy-sn-glycero-3-phosphorylcholine
TRITON X-100™ prepare at 6.249 mg/ml in reaction buffer to equal […].
A measured volume of racemic dipheptanoyl thio PC supplied in chloroform at a concentration of 100 mg/ml is taken to dryness and redissolved in 10 millimolar TRITON X-100™ nonionic detergent aqueous solution.
Reaction Buffer is added to the solution, then DTNB to give the Reaction Mixture.
The reaction mixture thus obtained contains 1 mM diheptanoly thio-PC substrate, 0.29 mm Triton X-100™ detergent, and 0.12 mm DTMB in a buffered aqueous solution at pH 7.5.
1. Add 0.2 ml reaction mixture to all wells;
2. Add 10 ul test compound (or solvent blank) to appropriate wells, mix 20 seconds;
3. Add 50 nanograms of sPLA2 (10 microliters) to appropriate wells;
4. Incubate plate at 40° C. for 30 minutes;
5. Read absorbance of wells at 405 nanometers with an automatic plate reader.
All compounds were tested in triplicate. […] Lack of color development at 405 nanometers evidenced inhibition. […] In all cases, % inhibition measured at 405 nanometers generated by enzyme reactions containing inhibitors relative to the uninhibited control reactions was determined. Each sample was titrated in triplicate and result values were averaged for plotting and calculation of IC50 values.

[2] = biological target: T1, Human Secreted Phospholipase A2; experiment: guinea pig lung pleural strip tissue test, sPLA2-induced contraction; format: cell-based; conditions: guinea pig lung pleural strips; compound added 30 min. prior to sPLA2 concentration-response curves; pA2 interpreted as apparent KB; read-out: Tissue test secreted PLA2 Apparent KB
Source text: Male Hartley strain guinea pigs (500-700 g) were killed by cervical dislocation and their heart and lungs removed intact and placed in aerated (95% O2:5% CO2) Krebs buffer. Dorsal pleural strips (4×1×25 mm) were dissected from intact parenchymal segments (8×4×25 mm) cut parallel to the outer edge of the lower lung lobes. Two adjacent pleural strips, obtained from a single lobe and representing a single tissue sample, were tied at either end and independently attached to a metal support rod. One rod was attached to a Grass force-displacement transducer (Model FTO3C, product of Grass Medical Instruments Co., Quincy, Mass., USA). […] All tissues were placed in 10 ml jacketed tissue baths maintained at 37° C. The tissue baths were continuously aerated and contained a modified Krebs solution of the following composition (millimolar) NaCl, 118.2; KCl, 4.6; CaCl2.2H2O, 2.5; MgSO4.7H2O, 1.2; NaHCO3, 24.8; KH2PO4, 1.0; and dextrose 10.0. Pleural strips from the opposite lobes of the lung were used for paired experiments. […] The tissues were allowed to equilibrate for 45 min. as the bath fluid was changed periodically.
Initially tissues were challenged 3 times with KCl (40 mM) to test tissue viability and to obtain a consistent response. After recording the maximal response to KCl, the tissues were washed and allowed to return to baseline before the next challenge. Cumulative concentration-response curves were obtained from pleural strips by increasing the agonist concentration (sPLA2) in the tissue bath by half-log10 increments while the previous concentration remained in contact with the tissues (Ref.1, supra.) Agonist concentration was increased after reaching the plateau of the contraction elicited by the preceding concentration. One concentration-response curve was obtained from each tissue. To minimize variability between tissues obtained from different animals, contractile responses were expressed as a percentage of the maximal response obtained with the final KCl challenge. When studying the effects of various drugs on the contractile effects of sPLA2, the compounds and their respective vehicles were added to the tissues 30 min. prior to star ting the sPLA2 concentration-response curves.
Data from different experiments were pooled and presented as a percentage of the maximal KCl responses (mean±S.E.). […] 163, (Ref.2) The model includes four parameters: the maximum tissue response which was assumed the same for each curve, the ED50 for the control curve, the steepness of the curves, and the pA2, the concentration of antagonist that requires a two-fold increase in agonist to achieve an equivalent response. […] 164 (Ref. 2).
To estimate the drug-induced suppression of the maximal responses, siPLA2 responses (10 ug/ml) were determined in the absence and presence of drug, and percent suppression was calculated for each pair of tissues.

[3] = diheptanoyl thio-PC substrate, pH 7.5, 40° C. for 30 minutes, absorbance at 405 nanometers, read-out: Inhibition of human secreted PLA2 IC50 ± mean deviation (3-4 tests)

With `Cc1c(C(=O)C(N)=O)c2c(OC(C)C(=O)O)cccc2n1Cc1ccccc1` (racemic) [Example 2, dl-2-[[3-(2-Amino-1,2-dioxoethyl)-2-methyl-1-(phenylmethyl)-1H-indol-4-yl]oxy]propanoic Acid] the IC50 [1, 3] was 9 ± 1.73 nM.

`Cc1c(C(=O)C(N)=O)c2c(OCC(=O)O)cccc2n1Cc1ccccc1-c1ccccc1` [3 (Na salt), [[3-(2-amino-1,2-dioxoethyl)-1-([1,1′-biphenyl]-2-ylmethyl)-2-methyl-1H-indol-4-yl]oxy]acetic acid, sodium salt] showed a Kb [2] of 67.6 ± 11.8 nM.

`CCc1c(C(=O)C(N)=O)c2c(OCC(=O)O)cccc2n1Cc1cccc(Cl)c1` [10 (Na salt), [[3-(2-amino-1,2-dioxoethyl)1-[(3-chlorophenyl)methyl]-2-ethyl-1H-indol-4-yl]oxy]acetic acid, sodium salt] showed a Kb [2] of 110 ± 10 nM.

With `Cc1c(C(=O)C(N)=O)c2c(OCC(=O)O)cccc2n1Cc1ccccc1` [Example 1, [[3-(2-Amino-1,2-dioxoethyl)-2-methyl-1-(phenylmethyl)-1H-indol-4-yl]oxy]acetic Acid] the Kb [2] was 143 ± 67 nM and the IC50 [1] was 10.7 ± 5.51 nM.

In the case of `Cc1c(C(=O)C(N)=O)c2c(OCC(=O)O)cccc2n1Cc1ccccc1-c1ccccc1` [Example 3, [[3-(2-Amino-1,2-dioxoethyl)-1-([1,1′-biphenyl]-2-ylmethyl)-2-methyl-1H-indol-4-yl]oxy]acetic Acid], the IC50 [1] is reported as 5.33 ± 1.15 nM.

Work on `Cc1c(C(=O)C(N)=O)c2c(OCC(=O)O)cccc2n1Cc1cccc(-c2ccccc2)c1` [Example 4, [[3-(2-Amino-1,2-dioxoethyl)-1-([1,1′-biphenyl]-3-ylmethyl)-2-methyl-1H-indol-4-yl]oxy]acetic Acid] yielded an IC50 [1] of 9.69 ± 1.14 nM.

Work on `Cc1c(C(=O)C(N)=O)c2c(OCC(=O)O)cccc2n1Cc1ccc(-c2ccccc2)cc1` [Example 5, [[3-(2-Amino-1,2-dioxoethyl)-1-([1,1′-biphenyl]-4-ylmethyl)-2-methyl-1H-indol-4-yl]oxy]acetic Acid] yielded an IC50 [1] of 49 ± 11.5 nM.

Compound `Cc1c(C(=O)C(N)=O)c2c(OCC(=O)O)cccc2n1Cc1c(Cl)cccc1Cl` [Example 6, [[3-(2-Amino-1,2-dioxoethyl)-1-[(2,6-dichlorophenyl)methyl]-2-methyl-1H-indol-4-yl]oxy]acetic Acid] has an IC50 [1, 3] of 6 ± 1 nM.

Work on `Cc1c(C(=O)C(N)=O)c2c(OCC(=O)O)cccc2n1Cc1ccc(F)cc1` [Example 7, [[3-(2-Amino-1,2-dioxoethyl)-1-[4(-fluorophenyl)methyl]-2-methyl-1H-indol-4-yl]oxy]acetic Acid] yielded an IC50 [1] of 6 ± 1 nM.

`Cc1c(C(=O)C(N)=O)c2c(OCC(=O)O)cccc2n1Cc1cccc2ccccc12` [Example 8, [[3-(2-Amino-1,2-dioxoethyl)-2-methyl-1-[(1-naphthalenyl)methyl]-1H-indol-4-yl]oxy]acetic Acid] was tested, and the IC50 [1] was 32.8 ± 7.04 nM.

Compound `CCc1c(C(=O)C(N)=O)c2c(OCC(=O)O)cccc2n1Cc1cccc(Cl)c1` [Example 10, [[3-(2-Amino-1,2-dioxoethyl)-1-[(3-chlorophenyl)methyl]-2-ethyl-1H-indol-4-yl]oxy]acetic Acid] has an IC50 [1] of 6.67 ± 2.89 nM.

With `CCc1c(C(=O)C(N)=O)c2c(OCC(=O)O)cccc2n1Cc1ccccc1-c1ccccc1` [Example 11, [[3-(2-Amino-1,2-dioxoethyl)-1-([1,1′-biphenyl]-2-ylmethyl)-2-ethyl-1H-indol-4-yl]oxy]acetic Acid] the Kb [2] was 57 ± 11 nM and the IC50 [1] was 4.33 ± 2.31 nM.

In the case of `CCCc1c(C(=O)C(N)=O)c2c(OCC(=O)O)cccc2n1Cc1ccccc1-c1ccccc1` [Example 12, [[3-(2-amino-1,2-dioxoethyl)-1-([1,1′-biphenyl]-2-ylmethyl)-2-propyl-1H-indol-4-yl]oxy]acetic Acid], the IC50 [1, 3] is reported as 82.2 ± 18 nM.

For `NC(=O)C(=O)c1c(C2CC2)n(Cc2ccccc2)c2cccc(OCC(=O)O)c12` [Example 13, [[3-(2-Amino-1,2-dioxoethyl)-2-cyclopropyl-1-(phenylmethyl)-1H-indol-4-yl]oxy]acetic Acid], the IC50 [1] was 27.6 ± 13.1 nM.

`NC(=O)C(=O)c1c(C2CC2)n(Cc2ccccc2-c2ccccc2)c2cccc(OCC(=O)O)c12` [Example 14, [[3-(2-Amino-1,2-dioxoethyl)-1-([1,1′-biphenyl]-2-ylmethyl)-2-cyclopropyl-1H-indol-4-yl]oxy]acetic Acid] gave a Kb [2] of 75 ± 9 nM and an IC50 [1] of 5.57 ± 2.89 nM.

`CCc1c(C(=O)C(N)=O)c2cc(OCCCC(=O)O)ccc2n1Cc1ccccc1` [Example 15] showed an IC50 [1, 3] of 210 ± 60 nM.

In the case of `NC(=O)C(=O)c1cn(Cc2ccccc2)c2ccc(OCCCC(=O)O)cc12` [Example 16, 4-[[3-(2-Amino-1,2-dioxoethyl)-1-(phenylmethyl)-H-indol-5-yl]oxy]butanoic Acid], the “activity in inhibiting sPLA2 (in words)” value ([1]; comment on Table I) is reported as “much less active” and the IC50 [1, 3] is reported as 62000 nM.

`CCc1c(C(=O)C(N)=O)c2c(NCC(=O)O)cccc2n1Cc1ccccc1` [Example 17, [[3-(Aminooxoacetyl)-2-ethyl-1-(phenylmethyl)-1H-indol-4-yl]amino]acetic Acid] was tested, and the IC50 [1, 3] was 1150 ± 120 nM.
